For one assay, the system named is GUMC-403. The assay can be described thus: viability at highest tested concentration (max response) relative to DMSO (% of DMSO control); higher = less cytotoxic. The settings on record: library / dose series: MIPE library, 11-point 1:3 dilution; top concentration 46.1 µM; 48 h. The method, boiled down:
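Viability at the highest tested concentration is given relative to vehicle control. For this, conditionally reprogrammed patient-derived GUMC-403 papilloma cells at 700/well in 1536-well plates were exposed to 23 nL of pinned compound for 48 h. Luminescence from CellTiter-Glo was read on a ViewLux and scaled between empty wells (0%) and vehicle wells (100%).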
The compound `OC(CCN1CCCCC1)(C2CC\3CC2\C=C3)C4=CC=CC=C4` (stereo not given) returned a viability of 136.

In the case of `COc1cc2ncnc(Nc3cccc(Cl)c3)c2cc1OC`, the viability is 98.8.

On to `N#CC1(c2cccc(C(=O)Nc3cc(Oc4ccc5nc(NC(=O)C6CC6)sc5n4)ccc3F)c2Cl)CC1`, for which the viability amounted to 71.8.

As for `CN[C@@H]1[C@@H](O)[C@@H](O[C@@H]2[C@@H](O)[C@H](O[C@H]3O[C@H](CN)[C@@H](O)[C@H](O)[C@H]3O)[C@@H](N)C[C@H]2NC(=O)[C@@H](O)CN)OC[C@]1(C)O`, the viability was found to be 96.8.

`CCN1CCCC1CNC(=O)c1cc([S+](N)(=O)[O-])ccc1OC` (stereo not given) had a viability of 134.

Compound `C[C@@H]1C(=O)OC2[C@H](O)[C@]34[C@H]5C[C@@H](C(C)(C)C)[C@]36[C@@H](OC(=O)[C@@H]6O)O[C@@]4(C(=O)O5)[C@]21O` (stereo not given in full) yielded a viability of 108.

`Cc1ccnc(N[S+](=O)([O-])c2ccc(NC(=O)Nc3ccc([S+](=O)([O-])Nc4nccc(C)n4)cc3)cc2)n1` returned a viability of 121.

As for `Fc1ccc(C(c2ccc(F)cc2)N2CCN(C/C=C/c3ccccc3)CC2)cc1`, the viability was determined as 109.

Turning to `Cc1nnc(C(=O)NC(C)(C)c2nc(C(=O)NCc3ccc(F)cc3)c(O)c(=O)n2C)o1`, the viability stood at 124.

In the case of `O=C(O)C(=O)c1cn(Cc2ccccc2)c2ccc(-c3ccc(OC(F)(F)F)cc3)cc12`, the viability amounted to 111.

Regarding `CCOC(=O)[C@H](CCc1ccccc1)N[C@H]1CS[C@H](c2cccs2)CN(CC(=O)O)C1=O.Cl`, the viability was 118.

Take `C[C@@H]1[C@H](O)[C@@H](C)/C=C/C=C/C=C/C=C/C=C/C=C/C=C/[C@H](O[C@@H]2O[C@H](C)[C@@H](O)[C@H](N)[C@@H]2O)C[C@@H]2O[C@](O)(C[C@@H](O)C[C@@H](O)[C@H](O)CC[C@@H](O)C[C@@H](O)CC(=O)O[C@H]1C)C[C@H](O)[C@H]2C(=O)O`: the viability was determined as 123.

The compound `Nc1n[nH]c2nnc(-c3c(-c4ccccc4)nn4ccccc34)cc12` gave a viability of 88.7.

In turn, `O=C(O)CCC1CCC(c2cc(F)ccc2F)([S+](=O)([O-])c2ccc(Cl)cc2)CC1` (stereo not given) displayed a viability of 99.9.

`Cc1oncc1C(=O)Nc1ccc(C(F)(F)F)cc1` returned a viability of 105.

Consider `COc1cc2ncn(-c3cc(OCc4ccccc4[S+](C)(=O)[O-])c(C#N)s3)c2cc1OC`, for which the viability turned out to be 81.5.

`CC(C)c1ccc2c(c1)c(SC(C)(C)C)c(CC(C)(C)C(=O)[O-])n2Cc1ccc(Cl)cc1` yielded a viability of 115.

On to `CCN(CC)CCCC(C)Nc1nc(C)cc(Nc2ccc3nc(C)cc(N)c3c2)n1` (stereo not given), for which the viability is 106.

Compound `N#CCNC(=O)c1ccc(-c2ccnc(Nc3ccc(N4CCOCC4)cc3)n2)cc1` returned a viability of 9.51.

Regarding `Cc1ccc(-n2nc(C(C)(C)C)cc2NC(=O)Nc2ccc(OCCN3CCOCC3)c3ccccc23)cc1`, the viability worked out at 56.

`COC(=O)C/1=C(C)/N/C(=C(\C1C2=CC(=CC=C2)[N+]([O-])=O)C(=O)OCCCN3CCC(CC3)(C4=CC=CC=C4)C5=CC=CC=C5)C` (stereo not given) gave a viability of 128.

In turn, `O=C1[O][Pt]2([NH]C3CCCCC3[NH]2)[O]C1=O` (stereo not given) came in with a viability of 113.

As to `COc1ccc2c(c1)CN(C)CC2c1ccc(Cl)c(Cl)c1` (stereo not given), the viability amounted to 129.

`C=CC[N+]1([C@H]2C[C@H]3[C@@H]4CC[C@H]5C[C@H](O)[C@@H](N6CCOCC6)C[C@]5(C)[C@H]4CC[C@]3(C)[C@H]2OC(C)=O)CCCC1` registered a viability of 108.

Regarding `COc1cc(NCc2ccc3nc(N)nc(N)c3c2C)cc(OC)c1OC`, the viability is 99.5.

With `CN(C)CCOc1cc(-c2cn[nH]c2)ccc1NC(=O)C1COc2ccccc2O1` (stereo not given), the viability was 117.

In turn, `Cc1cc(-c2ccc(CC(=O)Nc3ccc(-c4cccnc4)cc3)cc2)ccn1` registered a viability of 118.

Consider `O=P1(N(CCCl)CCCl)NCCCO1` (stereo not given), for which the viability was determined as 116.

Compound `c1cc(-c2sc(-c3ccncc3)c(-c3ccncc3)c2-c2ccncc2)ccn1` yielded a viability of 106.

`CCNC(=O)C[C@@H]1\N=C(C2=CC=C(Cl)C=C2)/C3=C(C=CC(=C3)OC)[N]4C(=NN=C14)C`: the viability came out at 79.8.

Compound `FC(F)(F)C1=CC=C2C(SCCCCCO\C3=C\O\C(CN4CCOCC4)=C/C3=O)=CC=NC2=C1` had a viability of 110.

`CC1=CC2=C(O1)C(=C3OC(=O)\C=C(C)/C3=C2)C` gave a viability of 111.

The compound `CC[C@H]1CN2CCc3cc(OC)c(OC)cc3[C@@H]2C[C@@H]1C[C@H]1NCCc2cc(OC)c(OC)cc21` yielded a viability of 79.9.

Turning to `CCCCc1oc2ccc(NS(C)(=O)=O)cc2c1C(=O)c1ccc(OCCCN(CCCC)CCCC)cc1`, the viability was found to be 126.

`C[C@H](NC(=O)C(=O)Nc1ccccc1C(C)(C)C)C(=O)N[C@@H](CC(=O)O)C(=O)COc1c(F)c(F)cc(F)c1F`: the viability stood at 68.7.

Turning to `Oc1ccc(-c2nc(-c3ccncc3)c(-c3ccc(F)cc3)[nH]2)cc1`, the viability is 102.

Take `CCNC(=O)[C@H]1O[C@@H](n2cnc3c(N)nc(NCCc4ccc(CCC(=O)O)cc4)nc32)[C@H](O)[C@@H]1O`: the viability was found to be 112.

`Nc1cc(N2CCCCC2)nc(N)[n+]1[O-]`: the viability worked out at 91.1.

`C[C@@H](NCc1cc2ccccc2[nH]1)c1cccc2ccccc12` showed a viability of 108.

`CC(C)=CCC/C(C)=C/CC/C(C)=C/CC/C(C)=C/CC/C(C)=C/CC/C(C)=C/CC/C(C)=C/CC/C(C)=C/CC/C(C)=C/CO` had a viability of 104.

The compound `C/C=C(/C)C(=O)O[C@H]1C(C)=C[C@]23C(=O)[C@@H](C=C(CO)[C@@H](O)[C@]12O)[C@H]1[C@@H](C[C@H]3C)C1(C)C` came in with a viability of 106.

On to `O=C(NCCCCN1CCOCC1)c1cc2ccccc2o1`, for which the viability was 106.

The compound `Clc1ccc(COC(Cn2ccnc2)c2ccc(Cl)cc2Cl)cc1` (stereo not given) returned a viability of 117.

Regarding `O=C1CCCC(=O)C1C(=O)c1ccc(C(F)(F)F)cc1[N+](=O)[O-]`, the viability is 104.

`O=C(O)c1ccc(-n2nc(-c3ccccc3O)nc2-c2ccccc2O)cc1` registered a viability of 80.9.

As to `NC1=NC(=O)N2CC12` (stereo not given), the viability was 138.

`O=C1c2c(O)cc(O)cc2OC(c2ccc(O)c(O)c2)C1O` (stereo not given): the viability was 116.

On to `COCC1(CO)C(=O)C2CCN1CC2` (stereo not given), for which the viability stood at 108.

Consider `C/C(O)=C(\C#N)C(=O)Nc1cc(Br)ccc1Br`, for which the viability was determined as 101.

The compound `CN(C)CCc1ccc(O)cc1` yielded a viability of 118.

The compound `CN(C)CC(C)(C)CNc1nn2c(-c3ccccc3)nnc2cc1C1CCC1` came in with a viability of 108.

Compound `Cn1c(CCCC(=O)O)nc2cc(N(CCCl)CCCl)ccc21` gave a viability of 124.

`Cc1cc2c(C(C)C)c(O)c(O)c(C=O)c2c(O)c1-c1c(C)cc2c(C(C)C)c(O)c(O)c(C=O)c2c1O` yielded a viability of 77.1.

In turn, `C[C@]12CC[C@H]3[C@@H](CC[C@@]45O[C@@H]4C(O)=C(C#N)C[C@]35C)[C@@H]1CC[C@@H]2O` yielded a viability of 124.

The compound `CC1=CC=C2N=C(NC(=O)CS\C3=N\C4=C(\SCC4)C(=O)N3C5=CC=CC=C5)SC2=C1` registered a viability of 109.

For the compound `C/C=C1\C2C=C(C)CC1(N)c1ccc(=O)[nH]c1C2` (stereo not given), the viability stood at 118.

Take `COc1cc2ncnc(-n3nc(-c4ccccn4)nc3N)c2cc1OC`: the viability turned out to be 124.

Compound `CN1CC(=O)N2[C@H](c3ccc4c(c3)OCO4)c3[nH]c4ccccc4c3C[C@@H]2C1=O` gave a viability of 91.5.

For `CCN(CC)CCOc1ccc(Cc2ccccc2)cc1`, the viability was determined as 101.

Consider `CC1=CC(=CC(=C1C\C2=N\CCN2)C)C(C)(C)C`, for which the viability came out at 130.

Turning to `CC1=CC=C2\N=C/3N(CC[C@@]3(O)C(=O)C2=C1)C4=CC=CC=C4`, the viability is 104.

`COC1=C(OCCCN2CCOCC2)C=C3N=CC=C(OC4=CC=C(C=C4F)\C5=C\N=C(\NC6=CC=C(F)C=C6)N(C)C5=O)C3=C1` displayed a viability of 72.6.

Take `CCN1CCC(n2cc(CNc3cc(Cl)c4ncc(C#N)c(Nc5ccc(F)c(Cl)c5)c4c3)nn2)CC1`: the viability was 97.

For the compound `CC(NC1=CC=CC=C1)C\2=C\C(=C/N3C(=O)\C=C(/N=C23)N4CCOCC4)C` (stereo not given), the viability is 79.7.

Turning to `CN1\N=N/C2=C(N=C[N]2C1=O)C(N)=O`, the viability was found to be 121.

Compound `O=C(c1ccc(C(=O)N2CCC(N3CCCC3)CC2)c(Nc2ccccc2)c1)N1CCC(N2CCCC2)CC1` gave a viability of 109.

As to `Nc1ncnc2c1ncn2[C@@H]1O[C@H](CO)C[C@H]1O`, the viability is 97.3.

`OC1=C(C=CC=C1)C2=CC=C(C=C2)C3=CSC4=C3C(=C(/C#N)C(=O)N4)/O` displayed a viability of 125.

Consider `N[S+]([O-])(=O)C1=CC=C(NC/2=C/C(=O)C3=CC=CC=C3C2=O)C=C1`, for which the viability was determined as 142.

Consider `COc1cc2nc(N3CCCN(C)CC3)nc(NC3CCN(Cc4ccccc4)CC3)c2cc1OC`, for which the viability was determined as 13.6.

Regarding `CC1(C)CC(O)CC(C)(C)N1[O]`, the viability is 121.

The compound `CN(C)Cc1cccc(N/C(=C2\C(=O)Nc3cc(C(=O)N(C)C)ccc32)c2ccccc2)c1` came in with a viability of 95.1.

For the compound `CCC[C@H](N[C@@H](C)C(=O)N1[C@H](C(=O)O)C[C@@H]2CCCC[C@@H]21)C(=O)OCC`, the viability was 120.

`COc1ccc(CC2NCCc3cc(OC)c(OC)cc32)cc1OC` (stereo not given) gave a viability of 91.3.

The assay is the same for the next values; noted with them: library / dose series: MIPE library, 11-point 1:3 dilution; top concentration 92.2 µM; 48 h.
In turn, `O=C(O)[C@H](Cc1c[nH]c2ccccc12)N1C(=O)c2ccccc2C1=O` showed a viability of 116.

The record behind these values is the supplement of paper PMC6723410.
